Like-named read-outs stand apart in the source and are kept apart here.

Data set [1] has as its system SARS-CoV-2. The format is cell-based.
In data set [2] the test system is hCoV OC43. The data set is described as follows: Inhibition of OC43-induced cytopathogenicity in Vero-76 cells (MTT). The format is cell-based.
Data set [3] in a line: in vitro. The note with it: African green monkey (Cercopithecus aethiops).
Data set [4] is described as follows: Cytotoxicity in SK-MES-1 cells (MTT). The note with it: human. In kind it is cell-based.
For data set [5], the system named is hCoV-229E. As to the kind of experiment: microbe, parasite or virus in culture. Particulars: for EC50: Human coronavirus 229E. In kind it is cell-based.
The subject of data set [6] is OC43. The data set is described as follows: Cell pretreatment assay (OC43, Vero-76). In kind it is cell-based, hCoV-OC43. Particulars: 2 h pre-treatment, 50, 20, 4, 0.8 μM, viability after six days.
The test system of data set [7] is OC43. As to the kind of experiment: OC43 virucidal activity assay. The format is cell-based, hCoV-OC43. Particulars: 0 °C and 37 °C, before cell infection.
The test system of data set [8] is OC43. As to the kind of experiment: OC43 yield reduction assay in Vero-76 cells. In kind it is cell-based, hCoV-OC43.
Data set [9] has as its system EV-A71. The data set is described as follows: Inhibition of EVA71-induced cytopathogenicity (MTT). In kind it is cell-based. Particulars: Enterovirus A, 50% protection from EVA71-induced cytopathogenicity.
For data set [10], the system named is OC43. The data set is described as follows: Adsorption assay (OC43, Vero-76). The note with it: virus and cells incubated at 4 °C in presence of compound.
For data set [11], the system named is Caco-2 cells. The data set is described as follows: Cytotoxicity in Caco-2 cells (MTT). In kind it is cell-based, human.
Data set [12] can be described thus: Cytotoxicity in Caco-2 cells (MTT). The format is cell-based, human. Particulars: human, MTT; for CC50 at 24 h: Caco-2, 24 h; for CC50 at 72 h: Caco-2, 72 h.
Data set [13] in a line: Cytotoxicity in Vero-76 cells (MTT). Particulars: African green monkey (Cercopithecus aethiops); for CC50: Vero-76 cells.
Data set [14] deals with hCoV-229E. On the set-up: method as in earlier work. Particulars: Huh-7 cells; ref [41]; read-out: EC50, replication of HCoV-229E in Huh-7 cells; cited from earlier work.
Data set [15] has as its system Vero-76 cells.
The subject of data set [16] is Mpro of SARS-CoV-2. Also noted: method as in earlier work. Particulars: ref [41]; cited from earlier work.
[17] abbreviates: Betacoronavirus 1, 50% protection of Vero-76 cells from OC43-induced cytopathogenicity, MTT, read-out: OC43 EC50.
Setting [18] is: 50% protection of SK-MES-1 cells from 229E-induced cytopathogenicity, MTT, read-out: 229E EC50.
The mark [19] stands for this setting: Betacoronavirus 1, OC43, Vero 76, cinnamic acids, read-out: OC43 EC50 (Table S1).
The mark [20] stands for this setting: SK-MES-1, cinnamic acids, read-out: 229E EC50 (Table S1).

On to `COc1ccc(/C=C/C(=O)Oc2cc(O)c3c(=O)c(O)c(-c4ccc(O)c(O)c4)oc3c2)cc1OC` [Compound 1], for which the “activity against SARS-CoV-2 (words)” value in data set [1] was “no activity”. Further, in data set [2], the “activity against OC43 (words)” value is reported as “no activity”. Moreover, in [2] (setting [17]), the EC50 is more than 54.7 µM. Further, in data set [3], the CC50 at 120 h came to 54.7 µM.
Take `COc1cc(/C=C/C(=O)Oc2cc(O)c3c(=O)c(O)c(-c4ccc(O)c(O)c4)oc3c2)ccc1O` [Compound 2]: in data set [2] (setting [17]), the EC50 is more than 11.4 µM. In data set [3], the CC50 at 120 h was determined as 11.4 µM.
For the compound `O=C(/C=C/c1ccc(O)cc1)Oc1cc(O)c2c(=O)c(O)c(-c3ccc(O)c(O)c3)oc2c1` [Compound 3], in data set [2], the “activity against OC43 (words)” value was “no evidence of activity”. The EC50 in [2] (setting [17]) was more than 60 µM. The compound further had a CC50 at 120 h in data set [3] of 60 µM.
In the case of `O=C(/C=C/c1ccccc1O)Oc1cc(O)c2c(=O)c(O)c(-c3ccc(O)c(O)c3)oc2c1` [Compound 4], the half-maximal effective concentration (EC50) in data set [2] (setting [17]) was more than 78 µM. Moreover, in data set [3], the CC50 at 120 h worked out at 78 µM.
In the case of `O=C(/C=C/c1cccc(O)c1)Oc1cc(O)c2c(=O)c(O)c(-c3ccc(O)c(O)c3)oc2c1` [Compound 5], in [2] (setting [17]), the EC50 was more than 75 µM. Moreover, the CC50 at 120 h in [3] was found to be 75 µM.
Consider `O=C(/C=C/c1ccc2c(c1)OCO2)Oc1cc(O)c2c(=O)c(O)c(-c3ccc(O)c(O)c3)oc2c1` [Compound 6], for which the CC50 at 48 h in data set [4] came out at 33 µM. Also, the figures for the EC50 in data set [5] (setting [18]) and in [2] (setting [17]) were more than 33 µM and 2.4 ± 0.56 µM, respectively. In addition, the CC50 at 120 h in data set [3] turned out to be 30 µM.
`COc1cc(/C=C/C(=O)Oc2cc(O)c3c(=O)c(O)c(-c4ccc(O)c(O)c4)oc3c2)cc(OC)c1O` [Compound 7]: the “protection of pre-treated Vero-76 monolayers from OC43 infection” value in [6] is “failed to inhibit OC43 infection”. Besides, the “virus titers of treated vs untreated samples (virucidal activity)” value in data set [7] is reported as “did not significantly differ”. Also, the “reduction in the OC43 titer” value in data set [8] (4 µM, Vero-76, m.o.i. 0.1) is listed as 2 logs. The “reduction in the viral titer” value in data set [8] (50, 20, 4 and 0.8 µM, Vero-76) is on record as “significant dose-dependent reduction”. Besides, the CC50 at 48 h in [4] is more than 100 µM. Besides, the concentration for a half-maximal effect (EC50) in data set [9] was more than 100 µM; in [5] (setting [18]), more than 100 µM; in [2] (setting [17]), 6.5 ± 0.7 µM. Besides, the “block of OC43 viral binding (adsorption)” value in data set [10] was “efficiently able to block OC43 viral binding”. In addition, the “activity against SARS-CoV-2 (words)” value in data set [1] is “showed activity”. Besides, the “cytotoxicity against Caco-2 cells” value in data set [11] (24 h) was “No relevant cytotoxicity”; in data set [11] (72 h) it was “a slight increase”. The CC50 at 24 h in data set [12] and in data set [3] was more than 100 µM in each case. Besides, the CC50 at 72 h in data set [12] was 70 µM; in data set [3], more than 100 µM. Besides, in data set [2], the selectivity index was found to be 15. This compound also had a CC50 at 120 h in data set [3] of 100 µM.
In the case of `O=C(/C=C/c1ccc(O)c(O)c1)Oc1cc(O)c2c(=O)c(O)c(-c3ccc(O)c(O)c3)oc2c1` [Compound 8], in [4], the CC50 at 48 h was more than 100 µM. In addition, the figures for the EC50 in data set [5] (setting [18]) and in [2] (setting [17]) were more than 100 µM and 15 µM, respectively. The “activity against SARS-CoV-2 (words)” value in data set [1] was “showed activity”. The compound also returned a CC50 at 120 h in [3] of 70 µM.
On to `COc1ccc(/C=C/C(=O)O)cc1OC` [Compound A1], for which, in data set [2] (setting [19]), the concentration giving a half-maximal response (EC50) was more than 100 µM. Also, the CC50 in [3] was more than 100 µM.
With `COc1cc(/C=C/C(=O)O)ccc1O` [Compound A2], in data set [2] (setting [19]), the EC50 was more than 100 µM. In addition, the CC50 in data set [3] is more than 100 µM.
`O=C(O)/C=C/c1ccc(O)cc1` [Compound A3]: the EC50 in data set [2] (setting [19]) was more than 100 µM. In [13], this compound registered a CC50 of more than 100 µM.
Consider `O=C(O)/C=C/c1ccccc1O` [Compound A4], for which the half-maximal effective concentration (EC50) in [2] (setting [19]) is more than 100 µM. Moreover, in data set [3], the CC50 was more than 100 µM.
Consider `O=C(O)/C=C/c1cccc(O)c1` [Compound A5], for which the EC50 in data set [2] (setting [19]) was more than 100 µM. The compound further showed a CC50 in data set [3] of more than 100 µM.
For the compound `COc1cc(/C=C/C(=O)O)cc(OC)c1O` [Compound A7, sinapic acid], the CC50 in data set [4] (cinnamic acids, read-out: SK-MES-1 CC50 (Table S1)) is more than 100 µM; in [13] it was 44 µM. In addition, the half-maximal effective concentration (EC50) in data set [5] (setting [20]) was more than 100 µM; in data set [2] (setting [19]) it was more than 44 µM. Besides, in data set [1], the “activity against SARS-CoV-2 (words)” value is “no anti-beta coronavirus activity”. Besides, the “activity against OC43 (words)” value in data set [2] is given as “no anti-beta coronavirus activity”.
For `O=C(O)/C=C/c1ccc(O)c(O)c1` [Compound A8], the CC50 in data set [4] and in data set [3] was more than 100 µM in each case. Further, the EC50 in data set [5] (setting [20]) and in data set [2] (setting [19]) was more than 100 µM each time.
For the compound `CCN(CCO)CCCC(C)Nc1ccnc2cc(Cl)ccc12` (stereo not drawn) [Hydroxychloroquine, reference compound], in [2] (setting [17]), the EC50 was 1.9 ± 0.8 µM. This compound registered a CC50 at 120 h in data set [3] of 60 µM.
In the case of `O=c1c(O)c(-c2ccc(O)c(O)c2)oc2cc(O)cc(O)c12` [Quercetin, reference compound], in [4] (mock-infected SK-MES-1 cells, 48 h post-treatment, MTT, read-out: SK-MES-1 CC50), the CC50 at 48 h was more than 100 µM. In addition, the EC50 in [9] is more than 100 µM; in data set [5] (setting [18]), 51 µM; in [14], 4.88 µM; in [2] (setting [17]), more than 20 µM. For the same compound, the results for the “activity against SARS-CoV-2 (words)” value in [1] and in data set [1] (listed as quercetin) were “no activity” and “no anti-beta coronavirus activity”, respectively. Further, the CC50 at 24 h in data set [12] is 88.7 µM; in data set [13], more than 100 µM. Moreover, the CC50 at 72 h in [12] was 61 µM; in data set [13], 100 µM. The results for the “activity against OC43 (words)” value in data set [2] and in data set [2] (listed as quercetin) were “no activity” and “no anti-beta coronavirus activity”, respectively. In data set [13], this compound yielded a CC50 at 120 h of 20 µM. In addition, in [15], the “cytotoxicity against Vero-76 cells” value is recorded as “No cytotoxicity was detected”. The IC50 in data set [16] is 6.79 µM.
Compound `CCC(CC)COC(=O)[C@H](C)N[P@](=O)(OC[C@H]1O[C@@](C#N)(c2ccc3c(N)ncnn23)[C@H](O)[C@@H]1O)Oc1ccccc1` [Remdesivir, reference compound] yielded a CC50 at 48 h in data set [4] of more than 100 µM. Further, the EC50 in [5] (setting [18]) is 5 ± 1 µM. In [3], this compound had a CC50 at 120 h of more than 100 µM.
For the compound `CCOC(=O)/C=C/[C@H](C[C@@H]1CCNC1=O)NC(=O)[C@@H](CC(=O)[C@@H](NC(=O)c1cc(C)on1)C(C)C)Cc1ccc(F)cc1` [Rupintrivir, reference compound], the response in [9] was half-maximal at 0.07 µM (EC50). This compound displayed a CC50 in data set [3] of more than 100 µM.
Turning to `COc1cc(/C=C/C(=O)O)ccc1O` [ferulic acid], the “activity against 229E” value in data set [5] is on record as “No inhibitory effect”. In data set [1], the “activity against SARS-CoV-2 (words)” value was “No inhibitory effect”. Moreover, the “activity against OC43 (words)” value in data set [2] is “No inhibitory effect”.
With Dextran sulphate [reference compound], in data set [6], the “protection of pre-treated Vero-76 monolayers from OC43 infection” value was “failed to inhibit OC43 infection”.

The record behind these values is paper PMC11125646 (Viruses, 2024).
